Data taken from patent publication US5663186A, “Treatment of atherosclerosis with angiotensin II receptor blocking imidazoles” (Merck & Co., Inc., priority 1995, dated 1997).

Experiments:
[1] = test system: patients with mild to moderate hypertension; experiment: Clinical study: sitting diastolic blood pressure; type: in vivo; conditions: for Peak Sitting Diastolic Blood Pressure, Mean (on treatment) / Mean Change in Peak Sitting Diastolic Blood Pressure / Change in Peak Sitting Diastolic Blood Pressure, adj. mean: peak (6 hours postdose); for Trough Sitting Diastolic Blood Pressure, Mean (on treatment) / Mean Change in Trough Sitting Diastolic Blood Pressure / Change in Trough Sitting Diastolic Blood Pressure, adj. mean: trough (24 hours postdose)
Description: Sitting Diastolic Blood Pressure Results At Week 6 and 12
The changes from baseline blood pressure (primary=trough sitting diastolic blod pressure at weeks 6 and 12) were evaluated using a least squares analysis of the means based upon an analysis of covariance (covariate=baseline blood pressure)for a randomized block (block=investigator site) design. An "all-patients-treated" and a "per-protocol" analysis were performed. The study was designed to detect a 5 mmHg difference in mean change between treatments with 95% probability based upon a group size of 86 with an α of 0.05 (two-sided) and a standard deviation of 9 mmHg.

[2] = test system: AT1 receptor subtype; conditions: cited from earlier work
[3] = test system: patients with mild to moderate hypertension; experiment: Clinical study: HDL cholesterol; type: in vivo
Description: (§1) The total, HDL, LDL and VLDL cholesterol levels were measured using the procedures described below:
High Density Lipoprotein Cholesterol
The high density lipoprotein (HDL) cholesterol was measured by analyzing a 2.0 mL volume of non-hemolyzed serum or EDTA plasma(heparinized plasma is not recommended), which has been separated from the cells within 30 minutes of collection. A fasting specimen of at least 12 hours is required for accurate interpretation. In most persons, the plasma cholesterol level is affected very little by a recent meal. However, in some persons an increase of up to 100 mg/dL may be induced by a recent meal. The level of cholesterol in plasma is slightly lower than serum (approximately 3%) due to the fact that the liquid EDTA dilutes the plasma slightly and it somotically draws water out of the erythrocytes.
The method used for in this procedure utilizes the precipitating properties of phosphotungstate. Addition of the HDL precipitating reagent lowers the pH of the sample to the isoelectric point for the LDL and VLDL. LDL and VLDL molecules at pH 5.7 have overall electrical neutrality.
Phosphotungstate then selectively forms insoluble ligand complexes with LDL and VLDL. Differences in ionic strength forcefully precipitate these complexes. Centrifugation removes them, leaving the HDL fraction in the supernatant. The resulting supernatant cholesterol (HDL) is then assayed for cholesterol. Cholesterol esters in the sample are hydrolyzed by cholesterol esterase to cholesterol and free fatty acids. The cholesterol produced in the reaction plus the free cholesterol present in the sample, are oxidized by cholesterol oxidase to form cholesten-3-one and hydrogen peroxide. Peroxidase catalyzes the hydrogen peroxide oxidation and 4-aminoantipyrine (4-AAP) and phenol with subsequent coupling to 3,4-dichlorophenol.
The end product is a quinoneimine dye which is read at a primary wavelength of 520 nm. The color formation is proportional to the concentration of cholesterol present. This absorbance value is then compared to the absorbance by a known calibrator. The result is then printed out directly in mg/dL.

[4] = test system: patients with mild to moderate hypertension; experiment: Clinical study: total cholesterol; type: in vivo
Description: as §1
Cholesterol esters in the sample are hydrolyzed by cholesterol esterase to cholesterol and free fatty acids. The cholesterol produced in the reaction plus the free cholesterol present in the sample, are oxidized by cholesterol oxidase to form cholesten-3-one and hydrogen peroxide. Peroxidase catalyzes the hydrogen peroxide oxidation and 4-aminoantipyrine(4-AAP) and phenol with subsequent coupling to 3,4-dichlorophenol. The end product is a quinoneimine dye which is read at a primary wavelength of 520 nm. The color formation is proportional to the concentration of cholesterol present. This absorbance value is then compared to the absorbance by a known calibrator. The result is then printed out directly in mg/dL.

[5] = test system: patients with mild to moderate hypertension; experiment: Clinical study: triglycerides; type: in vivo
Description: (§2) After six weeks the non-responders were titrated to a 100 mg oral dose administered once daily.

[6] = test system: Renal Hypertensives Rats; experiment: Antihypertensive effects in renal hypertensive rats (left renal artery ligation); type: in vivo, rat
Description: This procedure increases blood pressure by increasing renin production with consequent elevation of AII levels. Compounds are administered orally at 100 mg/kg and/or intravenously via a cannula in the jugular vein at 10 mg/kg. Arterial blood pressure is continuously measured directly through a carotid artery cannula and recorded using a pressure transducer and a polygraph. Blood pressure levels after treatment are compared to pretreatment levels to determine the antihypertensive effects of the compounds (See Table 1).
Compound listed in Table 2 was tested in the same manner as described for Table 1, except that in the test for antihypertensive effects in renal hypertensive rats, the compounds were administered orally at 30 mg/kg and intravenously at 3 mg/kg.

[7] = test system: patients with mild to moderate hypertension; experiment: Clinical study: plasma renin activity; type: in vivo
Description: as §2

CCCCc1nc(Cl)c(CO)n1Cc1ccc(-c2ccccc2-c2nnn[nH]2)cc1.[K] [Losartan, 2-n-butyl-4-chloro-1-[(2'-(tetrazol-5-yl)-1,1'-biphenyl-4-yl)-methyl]-1H-imidazole-5-methanol potassium salt]
Category I: Trough SDBP <90 mmHg, number of patients ([1]; 6 wk, 50 mg, of 125): 37
Category I: Trough SDBP <90 mmHg, percent of patients ([1]; 6 wk, 50 mg, of 125): 29.6%
Category II: Trough SDBP ≥90 mmHg, number of patients ([1]; 6 wk, 50 mg, of 125): 20
Category II: Trough SDBP ≥90 mmHg, percent of patients ([1]; 6 wk, 50 mg, of 125): 16.0%
Category III: Neither Category I or II, number of patients ([1]; 6 wk, 50 mg, of 125): 68
Category III: Neither Category I or II, percent of patients ([1]; 6 wk, 50 mg, of 125): 54.4%
Category I: Trough SDBP <90 mmHg, number of patients ([1]; 6 wk, 50/100 mg, of 118): 37
Category I: Trough SDBP <90 mmHg, percent of patients ([1]; 6 wk, 50/100 mg, of 118): 31.3%
Category II: Trough SDBP ≥90 mmHg, number of patients ([1]; 6 wk, 50/100 mg, of 118): 21
Category II: Trough SDBP ≥90 mmHg, percent of patients ([1]; 6 wk, 50/100 mg, of 118): 17.7%
Category III: Neither Category I or II, number of patients ([1]; 6 wk, 50/100 mg, of 118): 60
Category III: Neither Category I or II, percent of patients ([1]; 6 wk, 50/100 mg, of 118): 50.8%
Category I: Trough SDBP <90 mmHg, number of patients ([1]; 12 wk, 50 mg, of 125): 40
Category I: Trough SDBP <90 mmHg, percent of patients ([1]; 12 wk, 50 mg, of 125): 32.0%
Category II: Trough SDBP ≥90 mmHg, number of patients ([1]; 12 wk, 50 mg, of 125): 18
Category II: Trough SDBP ≥90 mmHg, percent of patients ([1]; 12 wk, 50 mg, of 125): 14.4%
Category III: Neither Category I or II, number of patients ([1]; 12 wk, 50 mg, of 125): 67
Category III: Neither Category I or II, percent of patients ([1]; 12 wk, 50 mg, of 125): 53.6%
Category I: Trough SDBP <90 mmHg, number of patients ([1]; 12 wk, 50/100 mg, of 118): 37
Category I: Trough SDBP <90 mmHg, percent of patients ([1]; 12 wk, 50/100 mg, of 118): 31.3%
Category II: Trough SDBP ≥90 mmHg, number of patients ([1]; 12 wk, 50/100 mg, of 118): 24
Category II: Trough SDBP ≥90 mmHg, percent of patients ([1]; 12 wk, 50/100 mg, of 118): 20.3%
Category III: Neither Category I or II, number of patients ([1]; 12 wk, 50/100 mg, of 118): 57
Category III: Neither Category I or II, percent of patients ([1]; 12 wk, 50/100 mg, of 118): 48.3%
Peak Sitting Diastolic Blood Pressure, Mean (on treatment) ([1]; 6 wk, 50 mg, N 118, all-patients-treated): 90.2 mmHg
Mean Change in Peak Sitting Diastolic Blood Pressure ([1]; 6 wk, 50 mg, N 118, baseline 99.9): -9.7 mmHg
Change in Peak Sitting Diastolic Blood Pressure, adj. mean ([1]; 6 wk, 50 mg, N 118, least squares): -9.7 mmHg
Peak Sitting Diastolic Blood Pressure, Mean (on treatment) ([1]; 6 wk, 50/100 mg, N 111, all-patients-treated): 90.3 mmHg
Mean Change in Peak Sitting Diastolic Blood Pressure ([1]; 6 wk, 50/100 mg, N 111, baseline 99.1): -8.9 mmHg
Change in Peak Sitting Diastolic Blood Pressure, adj. mean ([1]; 6 wk, 50/100 mg, N 111, least squares): -9.0 mmHg
Peak Sitting Diastolic Blood Pressure, Mean (on treatment) ([1]; 12 wk, 50 mg, N 121, all-patients-treated): 90.3 mmHg
Mean Change in Peak Sitting Diastolic Blood Pressure ([1]; 12 wk, 50 mg, N 121, baseline 99.8): -9.5 mmHg
Change in Peak Sitting Diastolic Blood Pressure, adj. mean ([1]; 12 wk, 50 mg, N 121, least squares): -9.3 mmHg
Peak Sitting Diastolic Blood Pressure, Mean (on treatment) ([1]; 12 wk, 50/100 mg, N 113, all-patients-treated): 89.1 mmHg
Mean Change in Peak Sitting Diastolic Blood Pressure ([1]; 12 wk, 50/100 mg, N 113, baseline 99.2): -10.1 mmHg
Change in Peak Sitting Diastolic Blood Pressure, adj. mean ([1]; 12 wk, 50/100 mg, N 113, least squares): -10.1 mmHg
Trough Sitting Diastolic Blood Pressure, Mean (on treatment) ([1]; 6 wk, 50 mg, N 125, all-patients-treated): 95.3 mmHg
Mean Change in Trough Sitting Diastolic Blood Pressure ([1]; 6 wk, 50 mg, N 125, baseline 102.1): -6.9 mmHg
Change in Trough Sitting Diastolic Blood Pressure, adj. mean ([1]; 6 wk, 50 mg, N 125, least squares): -6.9 mmHg
Trough Sitting Diastolic Blood Pressure, Mean (on treatment) ([1]; 6 wk, 50/100 mg, N 118, all-patients-treated): 94.3 mmHg
Mean Change in Trough Sitting Diastolic Blood Pressure ([1]; 6 wk, 50/100 mg, N 118, baseline 102.2): -7.9 mmHg
Change in Trough Sitting Diastolic Blood Pressure, adj. mean ([1]; 6 wk, 50/100 mg, N 118, least squares): -7.9 mmHg
Trough Sitting Diastolic Blood Pressure, Mean (on treatment) ([1]; 12 wk, 50 mg, N 125, all-patients-treated): 94.2 mmHg
Mean Change in Trough Sitting Diastolic Blood Pressure ([1]; 12 wk, 50 mg, N 125, baseline 102.1): -7.9 mmHg
Change in Trough Sitting Diastolic Blood Pressure, adj. mean ([1]; 12 wk, 50 mg, N 125, least squares): -7.9 mmHg
Trough Sitting Diastolic Blood Pressure, Mean (on treatment) ([1]; 12 wk, 50/100 mg, N 118, all-patients-treated): 93.6 mmHg
Mean Change in Trough Sitting Diastolic Blood Pressure ([1]; 12 wk, 50/100 mg, N 118, baseline 102.2): -8.6 mmHg
Change in Trough Sitting Diastolic Blood Pressure, adj. mean ([1]; 12 wk, 50/100 mg, N 118, least squares): -8.6 mmHg
AII antagonism, oral activity [2]: orally active A II antagonists
HDL CHOLESTEROL, TREATMENT MEAN ([3]; LOS 50, week 12, N 107): 52.1 mg/dL
HDL CHOLESTEROL, CHANGE MEAN ([3]; LOS 50, week 12, N 107, change from baseline 52.5): -0.4 mg/dL
HDL CHOLESTEROL, TREATMENT MEAN ([3]; LOS 50/100, week 12, N 106): 52.3 mg/dL
HDL CHOLESTEROL, CHANGE MEAN ([3]; LOS 50/100, week 12, N 106, change from baseline 52.9): -0.5 mg/dL
TOTAL CHOLESTEROL, CHANGE MEAN ([4]; LOS 50, week 12, N 107, change from baseline 211.1): -3.9 mg/dL
TOTAL CHOLESTEROL, TREATMENT MEAN ([4]; LOS 50, week 12, N 107, oral once daily): 207.3 mg/dL
TOTAL CHOLESTEROL, TREATMENT MEAN ([4]; LOS 50/100, week 12, N 106): 204.8 mg/dL
TOTAL CHOLESTEROL, CHANGE MEAN ([4]; LOS 50/100, week 12, N 106, change from baseline 212.6): -7.9 mg/dL
TRIGLYCERIDES, TREATMENT MEAN ([5]; LOS 50, week 12, N 107): 173.1 mg/dL
TRIGLYCERIDES, CHANGE MEAN ([5]; LOS 50, week 12, N 107, change from baseline 170.4): 2.7 mg/dL
TRIGLYCERIDES, TREATMENT MEAN ([5]; LOS 50/100, week 12, N 106): 187.8 mg/dL
TRIGLYCERIDES, CHANGE MEAN ([5]; LOS 50/100, week 12, N 106, change from baseline 174.4): 13.4 mg/dL
Antihypertensive Effects in Renal Hypertensives Rats, Intravenous Activity ([6]; intravenous, 10 mg/kg or less): + (Significant decrease in blood pressure at 10 mg/kg or less)
Antihypertensive Effects in Renal Hypertensives Rats, Oral Activity ([6]; oral, 100 mg/kg or less): + (Significant decrease in blood pressure at 100 mg/kg or less)
PLASMA RENIN ACTIVITY, TREATMENT MEAN ([7]; LOS 50, week 12, N 99): 2.889 ng/mL/h
PLASMA RENIN ACTIVITY, CHANGE MEAN ([7]; LOS 50, week 12, N 99, change from baseline 1.300): 1.589 ng/mL/h
PLASMA RENIN ACTIVITY, TREATMENT MEAN ([7]; LOS 50/100, week 12, N 96): 3.724 ng/mL/h
PLASMA RENIN ACTIVITY, CHANGE MEAN ([7]; LOS 50/100, week 12, N 96, change from baseline 1.473): 2.251 ng/mL/h
